Reference: ChEMBL document CHEMBL1201862, “PubChem BioAssay data set” (2004)
The source made the active and inactive calls.

Key:
H9c2 = test: cells; format: functional, cell-based; conditions: Rattus norvegicus, H9c2, Myocardium;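 note: confirmatory concentration-response retest of ultra-high-throughput screening hits for modulation of myocardial damage; cell death induced by hydrogen peroxide oxidative stress; compound pretreatment for 60 min then peroxide exposure for 2 h; potency is for protecting the cells against peroxide damage rather than for killing them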
[1] = molecular target: T1, Polyadenylate-binding protein 1 (Homo sapiens, UniProt P11940); test: PABP1 MLLE–PAM2 interaction inhibitors, dose response, miRNA deadenylation inhibitor project, biochemical, fluorescence polarization, Cy5-PAM2 peptide, secondary (AID 602260); format: functional; conditions: read-out: IC50_Mean
T1 sequence (P11940 whole entry): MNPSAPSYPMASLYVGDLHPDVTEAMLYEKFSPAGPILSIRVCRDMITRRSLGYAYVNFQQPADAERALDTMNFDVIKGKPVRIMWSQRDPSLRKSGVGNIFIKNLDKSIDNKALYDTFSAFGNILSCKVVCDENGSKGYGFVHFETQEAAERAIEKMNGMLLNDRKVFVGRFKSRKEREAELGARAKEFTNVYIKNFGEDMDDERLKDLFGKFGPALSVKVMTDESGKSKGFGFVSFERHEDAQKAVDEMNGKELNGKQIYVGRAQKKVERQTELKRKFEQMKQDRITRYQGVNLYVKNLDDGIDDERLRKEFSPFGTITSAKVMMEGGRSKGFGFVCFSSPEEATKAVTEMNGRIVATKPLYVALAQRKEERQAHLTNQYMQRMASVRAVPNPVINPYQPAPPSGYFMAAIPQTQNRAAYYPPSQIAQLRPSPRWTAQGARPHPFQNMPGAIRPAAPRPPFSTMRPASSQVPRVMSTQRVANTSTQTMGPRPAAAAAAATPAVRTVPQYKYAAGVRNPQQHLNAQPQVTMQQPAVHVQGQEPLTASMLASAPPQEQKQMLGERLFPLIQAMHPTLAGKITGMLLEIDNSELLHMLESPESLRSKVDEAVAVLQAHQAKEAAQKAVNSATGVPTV

[2] = molecular target: T1, Polyadenylate-binding protein 1; test: PABP1 MLLE–PAM2 binding inhibitor potency, dose response, biochemical, fluorescence polarization, FITC-PAM2 peptide (AID 602259); format: functional; conditions: read-out: IC50_Mean
[3] = molecular target: T2, Rac GTPase-activating protein 1 (Homo sapiens, UniProt Q9H0H5); test: MgcRacGAP GTPase-activating activity inhibitors, confirmation, biochemical, ADP Hunter fluorescence, primary and confirmatory (AID 624330); format: functional
T2 sequence (Q9H0H5 whole entry): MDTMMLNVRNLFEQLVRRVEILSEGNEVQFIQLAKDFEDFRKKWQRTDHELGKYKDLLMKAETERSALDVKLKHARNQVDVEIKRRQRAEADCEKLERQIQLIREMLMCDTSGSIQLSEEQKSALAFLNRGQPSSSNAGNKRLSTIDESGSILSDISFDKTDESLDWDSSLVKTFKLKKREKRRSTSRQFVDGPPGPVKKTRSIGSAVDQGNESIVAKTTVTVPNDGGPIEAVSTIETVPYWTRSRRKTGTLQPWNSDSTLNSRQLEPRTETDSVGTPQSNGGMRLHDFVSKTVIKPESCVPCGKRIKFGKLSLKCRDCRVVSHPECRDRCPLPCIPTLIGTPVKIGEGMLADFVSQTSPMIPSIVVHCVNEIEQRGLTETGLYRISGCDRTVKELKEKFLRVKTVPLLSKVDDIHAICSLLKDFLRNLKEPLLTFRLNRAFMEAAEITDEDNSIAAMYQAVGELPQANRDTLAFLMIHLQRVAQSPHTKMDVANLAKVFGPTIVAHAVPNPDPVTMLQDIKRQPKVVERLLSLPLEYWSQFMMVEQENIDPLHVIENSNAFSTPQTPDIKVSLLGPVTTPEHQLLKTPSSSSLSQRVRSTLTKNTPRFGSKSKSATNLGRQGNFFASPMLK

[4] = growth suppression of PTEN-null colon cells, dose response, cell-based, HCT116 PTEN knockout (AID 1047); format: functional;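 note: HCT116 colon tumor cells with PTEN knocked out; cells exposed to compound for 60 hours before readout; potency for loss of cell viability measured by luminescence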
[5] = growth suppression of beta-catenin-knockout colon cells, dose response, cell-based, HCT116, human colon tumor (AID 1045); format: functional;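 note: HCT116 colon tumor cells with beta catenin knocked out; cells exposed to compound for 60 hours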
Leucine aminopeptidase = molecular target: T3, Leucine aminopeptidase (Plasmodium falciparum 3D7, UniProt Q8IL11); test: P. falciparum M17LAP inhibitors, primary screen, biochemical, fluorogenic H-Leu-NHMec substrate, 1536-well (AID 1619); format: functional
T3 sequence (Q8IL11 whole entry): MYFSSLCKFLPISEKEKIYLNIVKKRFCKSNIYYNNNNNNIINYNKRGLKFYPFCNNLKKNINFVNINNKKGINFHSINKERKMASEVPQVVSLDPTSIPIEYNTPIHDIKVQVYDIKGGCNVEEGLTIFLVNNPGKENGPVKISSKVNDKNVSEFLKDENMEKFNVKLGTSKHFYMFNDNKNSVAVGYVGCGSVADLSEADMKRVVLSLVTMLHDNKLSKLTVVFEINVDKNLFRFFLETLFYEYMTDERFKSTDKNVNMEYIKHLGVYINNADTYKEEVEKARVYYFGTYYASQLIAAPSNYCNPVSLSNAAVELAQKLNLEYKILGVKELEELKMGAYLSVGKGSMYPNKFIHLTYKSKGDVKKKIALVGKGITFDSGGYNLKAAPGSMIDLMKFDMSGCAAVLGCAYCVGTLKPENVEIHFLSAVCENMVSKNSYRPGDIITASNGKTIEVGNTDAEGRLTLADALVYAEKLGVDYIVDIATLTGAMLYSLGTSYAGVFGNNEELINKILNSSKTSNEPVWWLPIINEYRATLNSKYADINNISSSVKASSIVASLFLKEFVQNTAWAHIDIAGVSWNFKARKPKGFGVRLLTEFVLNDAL

[6] = Luminescence Cell-Based Dose Retest to Confirm Inhibitors of Cancer Stem Cells. [Related pubchem assays (depositor defined):AID2717, AID2721]; format: functional; conditions: Homo sapiens
[7] = molecular target: T4, RNA-binding protein pos-1 (Caenorhabditis elegans, UniProt G5EF15); test: inhibitors of POS-1/mex-3 RNA binding, dose response, biochemical, fluorescence polarization (AID 1964);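 note: purified POS-1 fused to maltose binding protein made in E. coli; potency of compounds blocking POS-1 binding to fluorescent RNA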
T4 sequence (G5EF15 whole entry): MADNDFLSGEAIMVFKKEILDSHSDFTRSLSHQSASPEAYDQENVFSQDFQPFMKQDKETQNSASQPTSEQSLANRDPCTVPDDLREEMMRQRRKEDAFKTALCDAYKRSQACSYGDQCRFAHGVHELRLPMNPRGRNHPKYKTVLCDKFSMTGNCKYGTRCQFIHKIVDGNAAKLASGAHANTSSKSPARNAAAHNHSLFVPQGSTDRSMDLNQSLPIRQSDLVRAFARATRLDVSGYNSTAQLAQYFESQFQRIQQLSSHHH

[8] = molecular target: T5, Zinc finger protein mex-5 (Caenorhabditis elegans, UniProt Q9XUB2); test: MEX-5/TCR-2 RNA interaction inhibitors, dose response, biochemical, C. elegans, fluorescence polarization (AID 1960)
T5 sequence (Q9XUB2 whole entry): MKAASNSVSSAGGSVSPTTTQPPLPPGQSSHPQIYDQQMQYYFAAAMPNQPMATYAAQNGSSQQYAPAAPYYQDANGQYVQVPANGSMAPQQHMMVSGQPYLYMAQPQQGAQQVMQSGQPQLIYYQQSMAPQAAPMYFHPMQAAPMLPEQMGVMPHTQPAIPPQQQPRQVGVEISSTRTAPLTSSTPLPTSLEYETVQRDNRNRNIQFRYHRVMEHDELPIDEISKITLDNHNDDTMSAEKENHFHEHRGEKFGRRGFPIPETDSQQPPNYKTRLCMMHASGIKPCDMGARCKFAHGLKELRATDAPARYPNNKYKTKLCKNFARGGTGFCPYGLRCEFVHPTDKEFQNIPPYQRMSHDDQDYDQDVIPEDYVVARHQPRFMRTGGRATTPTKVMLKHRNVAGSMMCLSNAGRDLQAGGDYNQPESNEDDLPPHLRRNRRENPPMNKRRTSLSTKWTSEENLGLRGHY

[9] = NIH-3T3 fibroblast cytotoxicity, dose response, cytotoxicity control, cell-based, fluorescence, Alamar Blue, secondary assay (AID 2327); format: functional;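 note: NIH-3T3 mouse fibroblasts cultured with fluconazole at 8 µg/mL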
[10] = C. albicans growth with fluconazole, confirmation, fluorescence, retest (AID 2467); format: functional, cell-based
[11] = inhibitors of intracellular T. cruzi replication, confirmation, NIH3T3 host cells, beta-gal luminescence (AID 2044); format: functional, cell-based;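 note: intracellular parasites grown in NIH/3T3 mouse fibroblasts as host cells; luminescent beta-galactosidase reporter signal from transgenic T. cruzi replicating inside host cells; inhibitors lower the luminescence signal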
[12] = cytotoxicity toward NIH3T3 fibroblasts, dose response, counter-screen, cell-based, ATP luminescence, mouse fibroblasts (AID 2010); format: functional;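 note: cells exposed to compound for about 90 hours before reading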
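Throughout, for AC50: cells exposed to compound for roughly 70 hours or longer before luminescence read.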

In the case of `O=C(N/N=C/c1cn(-c2ccccc2)nc1-c1cccnc1)c1cccnc1`, the IC50 (H9c2) is reported as > 79 µM (inactive).
In the case of `Sc1ncnc2c1ncn2C1CCCO1` (stereo unspecified), the IC50 [1] is reported as > 66 µM (inactive) and the IC50 [2] is reported as > 66 µM (inactive).
For `Cc1cc2cc(CNC(=O)c3ccc4c(c3)OCO4)ccc2n1C`, the IC50 [1] was > 66 µM (inactive) and the IC50 [2] was > 66 µM (inactive).
For `CN(C)c1cc2c3ccccc3n(C)c2cc1N`, the IC50 [1] was > 66 µM (inactive), the IC50 [2] was 22.8 µM (inactive) and the IC50 [3] was 12.7 µM (active).
In the case of `CC(C)C(NC(=O)c1cccs1)C(=O)NC1=NCCS1` (stereo unspecified), the IC50 [1] is reported as > 66 µM (inactive) and the IC50 [2] is reported as > 66 µM (inactive).
For `Cc1ccc(-c2nc3ccccc3o2)cc1NC(=S)NC(=O)c1cc2ccccc2o1`, the EC50 [4] was 5.17 µM (active) and the EC50 [5] was 4.68 µM (active).
With `O=C(COC(=O)c1c2c(nc3ccccc13)/C(=C/c1cccc([N+](=O)[O-])c1)CCC2)NC1CCS(=O)(=O)C1` (stereo unspecified) the IC50 (H9c2) was 11.1 µM (active).
For `COc1cccc(/C=C2/SC(=O)N(CC(=O)N3CCc4ccccc4C3)C2=O)c1OCC(=O)O`, the IC50 (Leucine aminopeptidase) was 16.2 µM (active).
For `O=C(/C=C/c1ccc(-c2ccccc2[N+](=O)[O-])o1)c1ccco1`, the IC50 [1] was > 66 µM (inactive) and the IC50 [2] was > 66 µM (inactive).
With `CC(=O)Nc1cccc(NC(=O)Cc2nc(-c3ccccc3)sc2-c2ccc(C)cc2)c1` the EC50 [4] was 17.1 µM (active) and the EC50 [5] was 16.6 µM (active).
For `Cn1nc(C(F)(F)F)c(C(=O)Nc2cccc(C(F)(F)F)c2)c1SCc1ccc(Cl)cc1`, the EC50 [4] was 22.4 µM (active), the EC50 [5] was 26.7 µM (active) and the AC50 [6] was 6.27 µM (active).
With `CCOC(=O)c1cn(-c2ccc(F)c(F)c2)c2c(F)c(F)c(F)c(F)c2c1=O` the EC50 [4] was 19.5 µM (active) and the EC50 [5] was 22.4 µM (active).
With `Cc1ccc(N(CC(N)=O)C2SC(=O)N(Cc3ccccc3)C2=O)cc1` (stereo unspecified) the IC50 [1] was > 66 µM (inactive) and the IC50 [2] was > 66 µM (inactive).
In the case of `O=C(CSc1nnc(NC2CCCCC2)s1)NN1C(=O)NC2(CCCCC2)C1=O`, the IC50 (Leucine aminopeptidase) is reported as 10.5 µM (active).
For `Cc1ccc(NC(=O)CSc2nnc(NC(=O)CN3CCOCC3)s2)cc1`, the IC50 (Leucine aminopeptidase) was 9.15 µM (active).
For `CCOc1ccccc1NC(=O)Nc1ccc(OC)nc1`, the EC50 [7] was 31.6 µM (active), the EC50 [8] was 29.5 µM (active) and the IC50 [1] was > 66 µM (inactive). The IC50 [2] was 35.9 µM (inactive).
In the case of `CCN(c1ccccc1)S(=O)(=O)c1ccc(Cl)c(NC(=O)CN(C)C2CCN(C)CC2)c1`, the EC50 [9] is reported as > 150 µM (inactive), the EC50 [10] is reported as 3.82 µM (active) and the EC50 [11] is reported as 0.395 µM (active). For the same compound, the EC50 [12] was > 60 µM (not active) and the IC50 [3] was 80.2 µM (active).
